The source of these data is ChEMBL document CHEMBL3872273, “α-Pyrone derivatives, tetra/hexahydroxanthones, and cyclodepsipeptides from two freshwater fungi” (Bioorg Med Chem, 2017).

Experiment [1] concerns Escherichia coli. Put plainly: Antimicrobial activity against Escherichia coli. In kind it is functional.
Experiment [2] relates to Escherichia coli. Briefly: Inhibition of Escherichia coli Peptidyl-tRNA hydrolase assessed as reduction in peptidyl-tRNA cleavage to free tRNA by gel electrophoresis.
A further experiment deals with Pseudomonas aeruginosa. Briefly: Inhibition of Pseudomonas aeruginosa Peptidyl-tRNA hydrolase assessed as reduction in peptidyl-tRNA cleavage to free tRNA by gel electrophoresis.
The subject of a further experiment is Staphylococcus aureus. Briefly: Antimicrobial activity against Staphylococcus aureus. Type of experiment: functional.
The test system of experiment [3] is Salmonella enterica subsp. enterica serovar Typhimurium. Briefly: (§1) Inhibition of Salmonella typhimurium Peptidyl-tRNA hydrolase assessed as reduction in peptidyl-tRNA cleavage to free tRNA by gel electrophoresis.
A further experiment concerns Candida albicans. Briefly: Antimicrobial activity against Candida albicans. Type of experiment: functional.
In the next experiment the test system is Aspergillus niger. Put plainly: Antimicrobial activity against Aspergillus niger. In kind it is functional.
Experiment [4] relates to Mycolicibacterium smegmatis. Put plainly: Antimicrobial activity against Mycobacterium smegmatis. In kind it is functional.
A short description of experiment [5]: as §1. Also on record: species or system Salmonella enterica subsp. enterica serovar Typhimurium.

Each structure is given as a SMILES string. In brackets after ≈: the same amount, converted by molar mass. Activity calls are given as the source filed them. The calls are words filed in the database; no cut-off is given here. Some results are limits rather than exact numbers.

One may read the MIC as the least concentration at which growth counts as inhibited. A higher MIC goes with a less susceptible organism. The term IC50 denotes the concentration at which inhibition is half-maximal.

With `COC(=O)[C@]12Oc3cccc(O)c3C(=O)[C@@H]1[C@H](O)C[C@@H](C)[C@@H]2O`, the MIC is over 100 µg/mL with Escherichia coli [1]; over 100 µg/mL in the experiment with Staphylococcus aureus; 100 µg/mL (≈ 310 µM) against Candida albicans; over 100 µg/mL against Aspergillus niger; over 100 µg/mL in [4]. Also, the inhibition entry (with Escherichia coli [2]; in the experiment with Pseudomonas aeruginosa; in experiment [3]) was “Active” in each case.
For `CCC[C@@H](O)Cc1oc(=O)cc(OC)c1C`, the minimum inhibitory concentration (MIC) (against Escherichia coli [1]; against Staphylococcus aureus; against Candida albicans; against Aspergillus niger; in [4]) was over 155 µg/mL throughout.
For the compound `CCC[C@H]1Cc2oc(=O)cc(OC)c2[C@H](O)O1`, the MIC against Escherichia coli [1] is 75 µg/mL (≈ 312 µM); with Staphylococcus aureus it was over 75 µg/mL; in the experiment on Candida albicans it was over 75 µg/mL; against Aspergillus niger, over 75 µg/mL; in [4] it was over 75 µg/mL.
On to `COc1cc(=O)oc2c1CO[C@@H](CO)C2`, for which the MIC (in the experiment with Escherichia coli [1]; in the experiment on Staphylococcus aureus; in the experiment with Candida albicans; in the experiment on Aspergillus niger; in experiment [4]) was over 53 µg/mL in each case. The inhibition result (with Escherichia coli [2]; in the experiment with Pseudomonas aeruginosa; in experiment [3]) was “Active” throughout.
For `CCC[C@H]1OCc2c(OC)cc(=O)oc2[C@H]1O`, the MIC in the experiment with Escherichia coli [1] was over 145 µg/mL; against Staphylococcus aureus, over 145 µg/mL; in the experiment on Candida albicans it was 145 µg/mL (≈ 604 µM); with Aspergillus niger, over 145 µg/mL; in [4], 145 µg/mL (≈ 604 µM). Besides, the inhibition result (with Escherichia coli [2]; with Pseudomonas aeruginosa; in experiment [3]) was “Active” in each case.
For `CCCC(O)Cc1oc(=O)cc(OC)c1CO` (racemic), the MIC (against Escherichia coli [1]; against Staphylococcus aureus; with Candida albicans; against Aspergillus niger; in [4]) was over 55 µg/mL in each case.
Turning to `COc1cc(=O)oc2c1CO[C@@H](CC(C)=O)C2` [PYRENOCINE K], the MIC (in the experiment with Escherichia coli [1]; in the experiment on Staphylococcus aureus; with Candida albicans; against Aspergillus niger; in [4]) was over 25 µg/mL each time.
With `CC[C@H](C)[C@@H]1NC(=O)[C@H](CCC(N)=O)N(C)C(=O)[C@@H](C(C)C)N(C)C(=O)CNC(=O)[C@@H]2CCCN2C(=O)[C@H](Cc2ccccc2)NC(=O)[C@H]([C@@H](C)CC)OC(=O)[C@H](CCC(=O)O)N(C)C(=O)[C@H](C(C)C)NC(=O)[C@@H]2CCCN2C1=O`, the MIC (in the experiment with Escherichia coli [1]; against Staphylococcus aureus; against Candida albicans; against Aspergillus niger; in [4]) was over 125 µg/mL throughout.
In the case of `CC[C@H](C)[C@@H]1NC(=O)[C@H](CCC(N)=O)N(C)C(=O)[C@@H](C(C)C)N(C)C(=O)CNC(=O)[C@@H]2CCCN2C(=O)[C@H](Cc2ccccc2)NC(=O)[C@H]([C@@H](C)CC)OC(=O)[C@H](CCC(=O)O)N(C)C(=O)[C@H](C(C)C)NC(=O)[C@@H]2CCCCN2C1=O`, the MIC (with Escherichia coli [1]; against Staphylococcus aureus; in the experiment on Candida albicans; in the experiment with Aspergillus niger; in experiment [4]) was over 98 µg/mL each time.
`COc1cc(=O)oc(CO)c1C`: the MIC is 25 µg/mL (≈ 147 µM) in the experiment on Escherichia coli [1]; over 25 µg/mL with Staphylococcus aureus; 25 µg/mL (≈ 147 µM) in the experiment on Candida albicans; over 25 µg/mL against Aspergillus niger; 25 µg/mL (≈ 147 µM) in experiment [4].
In the case of `CCC[C@H]1Cc2oc(=O)cc(OC)c2CO1`, the MIC in the experiment on Escherichia coli [1] is over 203 µg/mL; in the experiment with Staphylococcus aureus, over 203 µg/mL; in the experiment with Candida albicans, over 203 µg/mL; against Aspergillus niger, 203 µg/mL (≈ 905 µM); in experiment [4] it was over 203 µg/mL. In addition, the inhibition entry (with Escherichia coli [2]; with Pseudomonas aeruginosa; in experiment [3]) was “Active” each time.
For `COC(=O)[C@]12Oc3cccc(O)c3C(=O)C1=C(O)C[C@@H](C)[C@@H]2O`, the MIC (with Escherichia coli [1]; against Staphylococcus aureus; with Candida albicans; with Aspergillus niger; in experiment [4]) was over 65 µg/mL each time. The inhibition result (with Escherichia coli [2]; with Pseudomonas aeruginosa; in [3]) was “Active” in each case.
Regarding `COC(=O)[C@]12Oc3ccc(-c4ccc5c(c4O)C(=O)C4=C(O)C[C@@H](C)[C@H](O)[C@@]4(C(=O)OC)O5)c(O)c3C(=O)C1=C(O)C[C@@H](C)[C@@H]2O` [SECALONIC ACID A], the MIC (with Escherichia coli [1]; with Staphylococcus aureus; in the experiment with Candida albicans; against Aspergillus niger; in experiment [4]) was over 75 µg/mL in each case. Besides, the inhibition entry with Escherichia coli [2] and with Pseudomonas aeruginosa was “Active” each time. Moreover, the IC50 in experiment [5] came out at 1.4 mM.
With `CCCCCc1oc(=O)cc(OC)c1CO` [PYRENOCINE M], the MIC (against Escherichia coli [1]; in the experiment with Staphylococcus aureus; in the experiment with Candida albicans; in the experiment with Aspergillus niger; in [4]) was over 140 µg/mL throughout.
As to `COc1cc(=O)oc2c1CO[C@@H](C[C@@H](C)O)C2`, the inhibition result (in the experiment with Escherichia coli [2]; in the experiment on Pseudomonas aeruginosa; in experiment [3]) was “Active” each time.
For the compound `CCCCC(O)c1cc(OC)c(C)c(=O)o1` (racemic), the MIC (against Escherichia coli [1]; against Staphylococcus aureus; in the experiment on Candida albicans; in the experiment on Aspergillus niger; in experiment [4]) was over 35 µg/mL throughout.
On to `COC(=O)[C@]12Oc3cccc(O)c3C(=O)[C@@H]1[C@@H](O)C[C@@H](C)[C@@H]2O`, for which the MIC (against Escherichia coli [1]; against Staphylococcus aureus; against Candida albicans; in the experiment on Aspergillus niger; in experiment [4]) was over 75 µg/mL throughout.
